For one test, the target named is T1, human TRPA1 (Homo sapiens, UniProt O75762).
T1 construct: expressed in transfected cells; host or cells: HEK293 cells, transient lipofection of pcDNA3.1(+) human TRPA1-expression vector
In words: Test Example 1: TRPA1 activity-inhibition ratio, intracellular calcium (Fura 2-AM) in TRPA1-expressing HEK293 cells stimulated with menthol. It is filed as cell-based. The settings on record: mixed with agonist 1 mM menthol. As to the method:
A cDNA encoding human TRPA1 [a polynucleotide of position 63 to position 3888 of the nucleotide sequence shown in SEQ ID NO: 1 (GenBank Accession No.: NM_007332)] was inserted into a cloning site of a vector for mammalian cells [manufactured by Invitrogen under the trade name of pcDNA3.1(+)], to obtain a human TRPA1-expression vector. One microgram of the resulting human TRPA1-expression vector was mixed with 6 μL of a gene transfer reagent [manufactured by Invitrogen under the trade name of PLUS Reagent, Catalogue No.: 11514-015], to obtain a mixture I. Additionally, 4 μL of a cationic lipid for gene transfer [manufactured by Invitrogen under the trade name of Lipofectamine (registered trademark), Catalogue No.: 18324-012] was mixed with 200 μL of a medium for reducing serum consumption [Manufactured by Invitrogen under the trade name of Opti-MEM (registered trademark) I Reduced Serum Medium (catalogue No.: 11058021)], to obtain a mixture II.
Furthermore, 5×10^5 cells of HEK293 cells were cultured in a 10% by mass fetal bovine serum (FBS)-containing Dulbecco's modified Eagle's medium (DMEM) on a dish having a diameter of 35 mm maintained at 37° C. under 5% by volume carbon dioxide atmosphere to 70% confluence.
By adding the mixture I and the mixture II to the resulting cell culture, the human TRPA1-expression vector was introduced into HEK293 cells, to obtain TRPA1-expressing cells. […]
Thereafter, intensity of fluorescence A based on the Fura 2-AM introduced into the TRPA1-expressing cell and bound to a calcium ion in the cells at an excitation wavelength of 340 nm in the chamber and intensity of fluorescence B based on the Fura 2-AM introduced into the TRAP1-expressing cell at an excitation wavelength of 380 nm were measured.
Using the measured intensity of fluorescence A and B, Δfluorescence intensity ratioagonist was calculated. The Δfluorescence intensity ratioagonist was calculated on the basis of the formula (IV): [Formula 1] ΔFluorescence intensity ratioagonist=(Fluorescence intensity340 nm in the presence of an agonist/Fluorescence intensity 380 nm in the presence of an agonist)−(Fluorescence intensity340 nm in the presence of a control/Fluorescence intensity380 nm in the presence of a control) (IV).
In the formula (IV), the intensity of fluorescence A was used as fluorescence intensity340 nm, and the intensity of fluorescence B was used as fluorescence intensity380 nm. […]
A general note: Calcium assays in cells follow changes in intracellular calcium, usually with a dye or a luminescent sensor.

Another test has as its target T2, human TRPM8 (Homo sapiens, UniProt Q7Z2W7).
T2 construct: expressed in transfected cells; host or cells: HEK293 cells, transient lipofection of pcDNA3.1(+) human TRPM8-expression vector
In words: Test Example 2: enhancement degree of TRPM8 activity, intracellular calcium (Fura 2-AM) in TRPM8-expressing HEK293 cells. The test is classed as cell-based. The conditions noted are these: test sample 0.5 mM, ratio to TRPM8 activity enhanced by agonist 1 mM menthol, FIG. 2. As to the method:
A cDNA encoding human TRPM8 [a polynucleotide of position 41 to position 3355 of the nucleotide sequence shown in SEQ ID NO: 3 (GenBank Accession No.: NM_024080)] was inserted into a cloning site of a vector for mammalian cells [manufactured by Invitrogen under the trade name of pcDNA3.1(+)], to obtain a human TRPM8-expression vector. One microgram of the resulting human TRPM8-expression vector was mixed with 6 μL of a gene transfer reagent [manufactured by Invitrogen under the trade name of PLUS Reagent, Catalogue No.: 11514-015], to obtain a mixture III. […]
Thereafter, intensity of fluorescence E based on the Fura 2-AM introduced into the TRPM8-expressing cell and bound to a calcium ion in the cells at an excitation wavelength of 340 nm and intensity of fluorescence F based on the Fura 2-AM introduced into the TRAM8-expressing cell at an excitation wavelength of 380 nm were measured in the chamber.
Using the measured intensity of fluorescence E and F, Δfluorescence intensity ratiotest sample was calculated on the basis of the formula (V). In the formula (V), the intensity of fluorescence E was used as fluorescence intensity340 nm, and the intensity of fluorescence F was used as fluorescence intensity380 nm. […]

Setting [1] is: test sample 1 mM in solvent A, FIG. 1.

T1 sequence (O75762 whole entry): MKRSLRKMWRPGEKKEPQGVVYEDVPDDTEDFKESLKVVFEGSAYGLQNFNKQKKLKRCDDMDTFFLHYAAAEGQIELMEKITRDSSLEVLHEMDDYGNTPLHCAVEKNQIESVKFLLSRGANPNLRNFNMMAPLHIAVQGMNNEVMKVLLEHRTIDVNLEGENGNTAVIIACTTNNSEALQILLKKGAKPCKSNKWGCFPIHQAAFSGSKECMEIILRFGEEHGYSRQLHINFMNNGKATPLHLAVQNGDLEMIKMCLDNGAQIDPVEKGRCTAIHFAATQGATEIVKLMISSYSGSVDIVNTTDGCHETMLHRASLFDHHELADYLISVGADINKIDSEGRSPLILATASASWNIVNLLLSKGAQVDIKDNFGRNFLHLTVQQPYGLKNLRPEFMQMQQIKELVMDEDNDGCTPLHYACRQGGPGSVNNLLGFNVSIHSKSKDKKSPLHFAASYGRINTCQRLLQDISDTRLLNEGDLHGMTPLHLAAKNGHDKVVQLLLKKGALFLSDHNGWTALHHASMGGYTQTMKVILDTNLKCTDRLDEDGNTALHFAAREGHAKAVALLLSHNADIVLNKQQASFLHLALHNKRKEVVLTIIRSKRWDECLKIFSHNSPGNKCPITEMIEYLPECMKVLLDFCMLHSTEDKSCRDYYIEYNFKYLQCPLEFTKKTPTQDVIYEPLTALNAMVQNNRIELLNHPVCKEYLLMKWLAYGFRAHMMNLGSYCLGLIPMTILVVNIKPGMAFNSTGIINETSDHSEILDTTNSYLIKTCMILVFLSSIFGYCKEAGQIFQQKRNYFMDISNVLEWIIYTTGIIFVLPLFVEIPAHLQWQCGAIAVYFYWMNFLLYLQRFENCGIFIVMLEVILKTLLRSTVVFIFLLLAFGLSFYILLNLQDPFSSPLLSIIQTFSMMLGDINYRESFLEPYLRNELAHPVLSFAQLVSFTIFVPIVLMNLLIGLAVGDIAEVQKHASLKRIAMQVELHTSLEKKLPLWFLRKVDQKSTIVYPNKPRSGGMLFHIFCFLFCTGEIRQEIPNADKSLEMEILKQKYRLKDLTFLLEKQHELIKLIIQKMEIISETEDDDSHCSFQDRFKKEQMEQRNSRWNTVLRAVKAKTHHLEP
T2 sequence (Q7Z2W7 whole entry): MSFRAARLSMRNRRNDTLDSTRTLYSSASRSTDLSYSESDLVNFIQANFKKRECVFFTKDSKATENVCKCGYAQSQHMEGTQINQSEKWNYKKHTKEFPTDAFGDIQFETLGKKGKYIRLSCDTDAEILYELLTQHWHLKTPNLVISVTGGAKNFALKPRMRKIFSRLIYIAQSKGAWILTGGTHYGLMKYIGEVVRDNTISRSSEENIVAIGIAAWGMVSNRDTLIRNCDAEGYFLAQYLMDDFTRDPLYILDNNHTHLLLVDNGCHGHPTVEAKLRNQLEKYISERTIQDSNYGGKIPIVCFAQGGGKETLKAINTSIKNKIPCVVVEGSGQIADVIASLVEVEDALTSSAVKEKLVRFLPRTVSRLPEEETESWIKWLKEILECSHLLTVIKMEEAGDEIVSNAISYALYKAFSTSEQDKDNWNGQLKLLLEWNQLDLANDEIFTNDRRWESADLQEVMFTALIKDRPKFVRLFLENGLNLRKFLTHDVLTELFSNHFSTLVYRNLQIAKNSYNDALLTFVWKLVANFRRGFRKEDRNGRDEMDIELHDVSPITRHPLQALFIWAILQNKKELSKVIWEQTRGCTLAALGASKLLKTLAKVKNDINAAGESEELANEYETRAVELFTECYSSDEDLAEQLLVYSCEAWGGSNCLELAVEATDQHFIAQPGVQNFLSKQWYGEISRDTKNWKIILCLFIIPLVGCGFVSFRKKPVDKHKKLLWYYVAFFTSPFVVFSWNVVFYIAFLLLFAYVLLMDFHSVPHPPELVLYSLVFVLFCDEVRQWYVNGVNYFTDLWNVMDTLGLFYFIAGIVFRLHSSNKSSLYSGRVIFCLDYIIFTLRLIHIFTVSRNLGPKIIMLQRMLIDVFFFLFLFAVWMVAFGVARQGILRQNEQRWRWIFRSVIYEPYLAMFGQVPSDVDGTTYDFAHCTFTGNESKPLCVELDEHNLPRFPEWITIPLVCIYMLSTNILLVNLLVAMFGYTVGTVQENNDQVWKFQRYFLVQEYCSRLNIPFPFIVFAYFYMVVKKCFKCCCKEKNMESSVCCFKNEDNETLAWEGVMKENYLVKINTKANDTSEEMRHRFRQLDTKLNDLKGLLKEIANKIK

`CC1(C)C2CCC1(C)C(OCCO)C2` (stereo not drawn) [Example 1, 2-isobornyloxyethanol]: the TRPA1 activity-inhibition ratio result at human TRPA1 (setting [1]) is recorded as “about 99%”. Besides, the “Enhancement degree of TRPM8 activity” value at human TRPM8 is recorded as “about 0.69”.
As to `CC12CCC(CC1)C(C)(C)O2` [Reference Example 2, 1,8-cineole], the TRPA1 activity-inhibition ratio entry on human TRPA1 (setting [1]) was “about 71%”.
As to `OCC(O)CO` [Comparative Example 1, Glycerol], at human TRPA1 (test sample 5 mM glycerol in solvent A, FIG. 1 lane 4), the TRPA1 activity-inhibition ratio is given as at most 0%.
For the compound `CC1(C)C2CCC1(C)C(O)C2` (stereo not drawn) [Reference Example 1, Borneol], the TRPA1 activity-inhibition ratio result on human TRPA1 (setting [1]) is listed as “about 96%”. The “Enhancement degree of TRPM8 activity” value at human TRPM8 is given as “about 0.35”.
